Results reported in the supplement of paper PMC10307832.

What was measured:
Assay in all cases: relative viability (nuclei count vs DMSO), 5 days (fraction); higher = more cells survive
[1] = compound: COc1cc(Nc2ncc(F)c(Nc3ccc4c(n3)NC(=O)C(C)(C)O4)n2)cc(OC)c1OC [R406] + C[C@@H](Oc1cc(-c2cnn(C3CCNCC3)c2)cnc1N)c1c(Cl)ccc(F)c1Cl [Crizotinib] (partner 1 µM)
How it was run: (§1)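 Relative viability is defined as nuclei in treated wells over nuclei in vehicle wells. Duplicate plates were run and medians reported. Lung cancer cell lines in 1536-well plates were dosed by pin tool one day after seeding, with one drug or with a fixed anchor-drug dose plus five library-drug doses (not always all listed) in √10 steps, and nuclei were counted after 5 days.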

[2] = compound: COc1cc(Nc2ncc(F)c(Nc3ccc4c(n3)NC(=O)C(C)(C)O4)n2)cc(OC)c1OC [R406] + Nc1ncn([C@H]2C[C@H](O)[C@@H](CO)O2)c(=O)n1 [Decitabine] (partner 2 µM)
How it was run: as §1

[3] = compound: O=C(/C=C/c1cccnc1)NCCCCC1CCN(C(=O)c2ccccc2)CC1 [Daporinad] + Cc1cc(Nc2cc(N3CCN(C)CC3)nc(Sc3ccc(NC(=O)C4CC4)cc3)n2)n[nH]1 [Tozasertib] (partner 0.1 µM)
How it was run: as §1

[4] = compound: O=C(/C=C/c1cccnc1)NCCCCC1CCN(C(=O)c2ccccc2)CC1 [Daporinad] + O=C(CCCCCCC(=O)Nc1ccccc1)NO [Vorinostat] (partner 1 µM)
How it was run: as §1

| Cell Line | relative viability ([1]; first compound 0.08 µM) | relative viability ([1]; first compound 0.253 µM) | relative viability ([1]; first compound 0.8 µM) | relative viability ([1]; first compound 2.53 µM) | relative viability ([1]; first compound 8 µM) | relative viability ([2]; first compound 0.08 µM) | relative viability ([2]; first compound 0.253 µM) | relative viability ([2]; first compound 0.8 µM) | relative viability ([2]; first compound 2.53 µM) | relative viability ([2]; first compound 8 µM) | relative viability ([3]; first compound 0.0005 µM) | relative viability ([3]; first compound 0.001581 µM) | relative viability ([3]; first compound 0.005 µM) | relative viability ([3]; first compound 0.01581 µM) | relative viability ([4]; first compound 0.0005 µM) | relative viability ([4]; first compound 0.001581 µM) | relative viability ([4]; first compound 0.005 µM) | relative viability ([4]; first compound 0.01581 µM) |
| --- | --- | --- | --- | --- | --- | --- | --- | --- | --- | --- | --- | --- | --- | --- | --- | --- | --- | --- |
| H3255 | 0.82 | 1.13 | 0.873 | 0.761 | 0.77 | 0.656 | 0.589 | 0.714 | 0.571 | 0.458 | 0.455 | 0.605 | 0.638 | 0.716 | 0.668 | 0.591 | 0.775 | 0.979 |
| 201T | 0.994 | 1.06 | 1.03 | 1.05 | 0.974 | 0.838 | 0.847 | 0.861 | 0.839 | 0.586 | 0.854 | 0.94 | 1 | 0.958 | 0.965 | 1.08 | 1.05 | 1.04 |
| NCI-H2126 | 0.965 | 1.11 | 1.01 | 1.02 | 0.995 | 0.618 | 0.629 | 0.638 | 0.545 | 0.582 | 0.919 | 0.888 | 0.875 | 0.93 | 0.862 | 0.836 | 0.948 | 0.91 |
| HOP-62 | 1.12 | 1.21 | 0.844 | 1.1 | 1.17 | 0.26 | 0.229 | 0.22 | 0.221 | 0.438 | 0.379 | 0.432 | 0.332 | 0.353 | 0.341 | 0.724 | 0.618 | 0.414 |
| NCI-H596 | 0.837 | 1.1 | 1.09 | 0.796 | 0.245 | 0.88 | 0.994 | 1.01 | 0.91 | 0.372 | 0.879 | 0.929 | 1.1 | 0.65 | 0.582 | 0.321 | 0.737 | 0.4 |
| NCI-H1755 | 0.81 | 0.954 | 0.861 | 0.641 | 0.188 | 0.652 | 0.707 | 0.676 | 0.733 | 0.679 | 0.449 | 0.544 | 0.533 | 0.638 | 0.76 | 0.934 | 0.807 | 0.751 |
| NCI-H2023 | 0.705 | 0.855 | 0.681 | 0.254 | 0.145 | 0.246 | 0.254 | 0.247 | 0.127 | 0.195 | 0.438 | 0.334 | 0.503 | 0.371 | 0.848 | 0.667 | 0.715 | 0.631 |
| NCI-H2009 | 1.07 | 1.02 | 1.13 | 0.815 | 0.301 | 0.371 | 0.42 | 0.383 | 0.353 | 0.294 | 0.76 | 0.706 | 0.724 | 0.555 | 0.745 | 0.79 | 0.708 | 0.347 |
